Where no end group is shown, it is not given here.
Legend:
[1] = tested on: human minimal promoter of the KCNJ2 gene; test: Luciferase assay in hEK-293 cells, minimal promoter of KCNJ2; format: cell-based; details: hEK-293, co-transfected with cDNA SEQ ID NO: 5, 48 hours
Experimental: (§1) 48 hours after transfection, luciferase assays were performed using the LightSwitch Luciferase Assay reagent, also from Active Motif, and a Berthold luminometer. All assays were performed in triplicate and each point represents the mean of each technical triplicate.

[2] = tested on: human Nav1.5 channels; test: Density of INa by whole-cell patch-clamp in CHO cells co-transfected with the cDNA encoding the peptide; format: cell-based; details: CHO cells expressing Nav1.5 plus cDNA of the peptide, vs cells transfected only with Nav1.5 channels
Experimental: To analyse the effect of the peptides designed in example 1 on INa and IK1, the cDNA that encodes SEQ ID NO: 3 or SEQ ID NO: 4, described in SEQ ID NO: 5 and 20, respectively, was cloned into a pcDNA3.1^(+)® vector (Invitrogen) for transfection of Chinese hamster ovary (CHO) cells that were in turn transfected with the cDNA that encodes the human Nav1.5 channels (SEQ ID NO: 21). The CHO cells were further co-transfected with the EBO-pcD leu 2 vector (0.5 µg), which encodes the expression of the CD8 surface antigen. The subsequent addition of anti-CD8 antibody, bonded to Dynabeads M450® microspheres, allowed the cells that had been transfected to be identified. […] The currents were recorded at 20-22°C using an Axopatch 200B amplifier, filtered at half the sampling frequency and stored in a computer for further analysis. […] The capacitive current artefacts generated after the application of pulses from 0 mV to +10 mV were recorded at 50 kHz (filtered at 10 kHz) to calculate the capacitance of the cell, the access resistance and the input impedance. […] INa was recorded by applying 50 ms pulses from a holding potential of -120 mV to potentials between -80 and +50 mV in 5 mV increments. […]

[3] = tested on: dissociated cardiomyocytes from Sham and TAC mice; test: INa density in dissociated cardiomyocytes, murine TAC model of HFrEF; format: in vivo; details: pre-treatment with DECA-11 (AAV9)
From the text: A murine model of CI with reduced ejection fraction (HFrEF) was used to analyse the effect of SEQ ID NO: 3 on the decrease in INa and IK1 caused by electrical remodelling associated with Cl. The mice are subjected to transverse aortic constriction (TAC) with ligation, and pressure overload leads to the occurrence of cardiac hypertrophy and Cl. The mice were produced at the Medical Research Centre of the University of Navarra (CIMA), under the direction of Dr Aránzazu González Miqueo.
Eight-week-old mice were administered 3.5×10^10 particles of adeno-associated virus type 9 that encoded either the fluorescent reporter td-Tomato (Aav-dt-T) alone, or the reporter and the peptide DECA-11. At 12 weeks of age, an echocardiographic check-up (baseline) was performed and at week 13 they underwent surgery in which the aorta was ligated (TAC animals) or not (Sham animals).
That same week they were sent to the UCM animal facility. Next, the mice were heparinised and anaesthetised and then sacrificed by cervical dislocation, at a rate of one per day, and a thoracotomy was performed to remove the heart which was mounted through the aorta into a cannula connected to a Langendorff apparatus for enzymatic dissociation of the cardiac myocytes. […]

[4] = tested on: minimal promoter of the human SCN5A gene; test: Luciferase promoter assay in hEK-293 cells, SCN5A; format: cell-based; details: hEK-293 cells co-transfected with cDNA SEQ ID NO: 5; 48 hours after transfection
Experimental: as §1

Sequence: RFTRESLAAIE [DECA-11, RFTRESLAAIE]
- effect on the minimal promoter of the human KCNJ2 gene [1]: protranscriptional effect
- density of INa [2]: significantly increase the density of INa

Sequence: RFTRESLAAIE (listed as Homo sapiens) [SEQ ID NO: 3, 11-amino acid peptide, amino acids 15-25 of human Nav1.5]
- density of INa ([3]; TAC cardiomyocytes): significantly and markedly increased
- density of INa ([3]; cardiomyocytes from Sham animals): increased
- effect on the minimal promoter of the human SCN5A gene (luciferase) [4]: no significant effect

Source: patent publication EP4786486A1, “PEPTIDES FOR TREATING CARDIAC DISEASES” (Universidad Complutense De Madrid, priority 2023, dated 2025)
